According to patent publication US5807671A (priority 1995, dated 1998):
Entries after “also recorded” stand apart in the source; their conditions may differ.

What was measured:
BuChE normal = BuChE normal (Homo sapiens, UniProt P06276); assay type: biochemical
AChE E6 = AChE E6 (Homo sapiens, UniProt P22303); assay type: biochemical
AChE E5 = AChE E5 (Homo sapiens, UniProt P22303); assay type: biochemical
"atypical" serum BuChE = assay type: biochemical, human
AChE = assay type: biochemical, human
[1] = system: normal and "atypical" BuChE; assay type: biochemical, human
BuChE "atypical" = BuChE "atypical" (Homo sapiens, UniProt P06276, D98G)
[2] = target: diisopropylphosphoryl-BuChE (Homo sapiens, UniProt P06276); experiment: biochemical
[3] = target: diisopropylphosphoryl-Chimera; assay type: biochemical, human
BuChE L^286 D = assay type: biochemical, human
BuChE L^286 Q = assay type: biochemical, human
BuChE L^286 R = assay type: biochemical, human
BuChE L^286 K = BuChE L^286 K (Homo sapiens, UniProt P06276, L314K); experiment: biochemical; assay type: biochemical
BuChE F^329 R = assay type: biochemical, human
BuChE F^329 Q = assay type: biochemical, human
BuChE F^329 C = assay type: biochemical, human
BuChE F^329 D = assay type: biochemical, human
BuChE S^425 P = assay type: biochemical, human
BuChE D^70 G = assay type: biochemical, human
BuChE D^70 G + Y^114 H = assay type: biochemical, human
BuChE D^70 G + S^425 P = assay type: biochemical, human
[4] = system: BuChE D^70 G + Y^114 H + S^425 P; assay type: biochemical, human
[5] = target: diisopropylphosphoryl-AChE (E6) (Homo sapiens, UniProt P22303)
[6] = target: diisopropylphosphoryl-AChE (E5) (Homo sapiens, UniProt P22303)
[7] = target: purified diethylphosphoryl-BuChE; details: cited from earlier work
[8] = human, in vivo, iv; cited from earlier work
normal serum BuChE = assay type: biochemical, human; details: 30 min, 10 µM
[9] = system: BuChE from heterozygous serum; assay type: biochemical, human; details: 30 min, 10 µM
[10] = system: ChEs (all of the examined enzymes); assay type: biochemical, human
serum BuChE = details: in vivo; cited from earlier work
REM sleep = details: in vivo; cited from earlier work
serum BuChE "atypical" = serum BuChE "atypical" (Homo sapiens, UniProt P06276, D98G)
[11] = system: BuChE of heterozygotes / 1:1 mixture of normal and "atypical" BuChE
[12] = human, in vivo; cited from earlier work
Alzheimer's disease [13] = details: in vivo; cited from earlier work
Parkinson's disease = details: human, in vivo; cited from earlier work
"atypical" BuChE [14] = details: cited from earlier work
"atypical" BuChE [15] = details: cited from earlier work; remark: listed apart in the source
"atypical" BuChE [16] = details: cited from earlier work; remark: listed apart in the source
Alzheimer's disease [17] = details: in vivo; cited from earlier work; remark: listed apart in the source
[18] = in vivo
"atypical" BuChE [19] = assay type: biochemical, human
[20] = in vivo; remark: listed apart in the source
horse serum BuChE = details: cited from earlier work

Sequence of AChE E6 (P22303 32-614): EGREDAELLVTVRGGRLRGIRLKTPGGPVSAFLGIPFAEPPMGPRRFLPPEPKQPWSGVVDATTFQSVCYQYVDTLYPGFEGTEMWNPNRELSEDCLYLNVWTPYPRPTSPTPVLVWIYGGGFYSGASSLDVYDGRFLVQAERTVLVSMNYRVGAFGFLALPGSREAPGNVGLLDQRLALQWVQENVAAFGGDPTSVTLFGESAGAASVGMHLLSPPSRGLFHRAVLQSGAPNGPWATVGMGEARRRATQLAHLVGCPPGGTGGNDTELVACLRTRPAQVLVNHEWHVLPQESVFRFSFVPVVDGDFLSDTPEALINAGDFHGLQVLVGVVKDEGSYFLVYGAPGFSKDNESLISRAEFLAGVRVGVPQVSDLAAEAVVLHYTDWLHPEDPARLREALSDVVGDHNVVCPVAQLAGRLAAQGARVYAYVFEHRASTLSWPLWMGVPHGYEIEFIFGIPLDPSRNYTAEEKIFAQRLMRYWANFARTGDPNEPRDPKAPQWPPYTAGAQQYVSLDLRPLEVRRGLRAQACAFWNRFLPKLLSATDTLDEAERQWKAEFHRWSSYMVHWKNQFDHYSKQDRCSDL
Sequence of diisopropylphosphoryl-BuChE (P06276 29-602): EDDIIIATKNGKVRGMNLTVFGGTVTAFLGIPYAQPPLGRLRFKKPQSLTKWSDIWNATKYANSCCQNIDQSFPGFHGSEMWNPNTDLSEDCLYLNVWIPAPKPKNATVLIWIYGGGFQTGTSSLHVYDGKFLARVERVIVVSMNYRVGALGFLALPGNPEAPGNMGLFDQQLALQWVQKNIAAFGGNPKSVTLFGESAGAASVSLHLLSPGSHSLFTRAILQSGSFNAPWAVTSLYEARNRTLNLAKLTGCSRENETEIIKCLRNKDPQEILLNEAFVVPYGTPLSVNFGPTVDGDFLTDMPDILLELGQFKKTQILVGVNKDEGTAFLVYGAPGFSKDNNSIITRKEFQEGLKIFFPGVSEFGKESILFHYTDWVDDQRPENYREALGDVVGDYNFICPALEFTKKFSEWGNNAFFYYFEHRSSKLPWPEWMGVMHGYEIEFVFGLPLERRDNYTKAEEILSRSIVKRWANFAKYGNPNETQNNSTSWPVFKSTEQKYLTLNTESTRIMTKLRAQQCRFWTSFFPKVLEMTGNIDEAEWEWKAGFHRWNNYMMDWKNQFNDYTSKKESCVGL
Sequence of BuChE normal (P06276 29-602): as above
Sequence of BuChE L^286 K (P06276 29-602 L314K limits assumed): as the sequence (P06276 29-602) above, with L286K counted along it
Sequence of AChE E5 (P22303-4 with tags, fused parts or gaps limits assumed): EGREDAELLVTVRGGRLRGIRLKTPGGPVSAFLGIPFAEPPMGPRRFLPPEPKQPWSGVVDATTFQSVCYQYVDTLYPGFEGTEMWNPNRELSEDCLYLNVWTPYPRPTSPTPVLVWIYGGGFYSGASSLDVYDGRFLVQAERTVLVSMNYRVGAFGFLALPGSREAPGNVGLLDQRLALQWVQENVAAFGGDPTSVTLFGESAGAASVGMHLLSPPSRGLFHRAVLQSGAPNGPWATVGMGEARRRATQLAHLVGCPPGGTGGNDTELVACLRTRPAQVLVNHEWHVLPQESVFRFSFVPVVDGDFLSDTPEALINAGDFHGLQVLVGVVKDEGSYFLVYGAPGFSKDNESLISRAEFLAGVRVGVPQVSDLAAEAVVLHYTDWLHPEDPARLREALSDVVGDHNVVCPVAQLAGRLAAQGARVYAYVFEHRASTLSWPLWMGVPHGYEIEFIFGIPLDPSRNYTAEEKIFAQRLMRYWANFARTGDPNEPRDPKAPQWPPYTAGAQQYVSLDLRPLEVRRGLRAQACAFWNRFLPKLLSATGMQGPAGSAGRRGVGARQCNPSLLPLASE
Sequence of BuChE "atypical" (P06276 29-602 D98G limits assumed): as the sequence (P06276 29-602) above, with D70G counted along it
Sequence of diisopropylphosphoryl-AChE (E6) (P22303 32-614): as the sequence (P22303 32-614) above
Sequence of diisopropylphosphoryl-AChE (E5) (P22303-4 with tags, fused parts or gaps limits assumed): as the sequence (P22303-4 with tags, fused parts or gaps limits assumed) above
Sequence of serum BuChE "atypical" (P06276 29-602 D98G limits assumed): as the sequence (P06276 29-602) above, with D70G counted along it

**Q.** What does the source list for CCCCCCCNC(=O)Oc1ccc2c(c1)C1(C)CCN(C)C1N2C (single isomer, unassigned) [N-heptyl physostigmine]?
**A.** inactivation rates of common BuChE compared with AChE (BuChE normal): higher than or equal to; second order rate constants, ki, for inactivation (BuChE normal): 1.1 × 10^7 ± 0.3 × 10^7; second order rate constants, ki, for inactivation (AChE E6): 1.6 × 10^6; second order rate constants, ki, for inactivation (AChE E5): 1.4 × 10^6; reaction of "atypical" BuChE with carbamates, compared with its normal counterpart ("atypical" serum BuChE): much slower; reactivation (AChE): 5%; original activity regained [1]: 10%; inactivation rates of "atypical" BuChE (BuChE "atypical"): considerably lower rates; second order rate constants, ki, for inactivation (BuChE "atypical"): 7.7 × 10^5 ± 4.4 × 10^5

**Q.** Which Kd [2] does the source give for C[n+]1ccccc1C=NO [PAM, Pyridine-2-aldoxime methiodide] here?
**A.** 300 µM

**Q.** What about the “Kr × 10^3” value [2] of the same compound?
**A.** 220 ± 60

**Q.** What about the “k'r × 10^3” value [2] of the same compound?
**A.** 150 ± 30

**Q.** And the “pseudo-first order rate constant for reactivation of DFP-inhibited BuChE, higher than AChE” value [2]?
**A.** 25 fold

**Q.** And the Kd [3]?
**A.** 340 ± 130 µM

**Q.** And the “Kr × 10^3” value [3]?
**A.** 48 ± 20

**Q.** And the “k'r × 10^3” value [3]?
**A.** 40 ± 18

**Q.** And the “reactivation rate constant lower than that of native BuChE” value [3]?
**A.** 5 fold

**Q.** What about the “k'r × 10^3” value (BuChE L^286 D) of the same compound?
**A.** 120 ± 30

**Q.** What about the “k'r × 10^3” value (BuChE L^286 Q) of the same compound?
**A.** 120 ± 20

**Q.** And the “k'r × 10^3” value (BuChE L^286 R)?
**A.** 6 ± 3

**Q.** And the Kd (BuChE L^286 K)?
**A.** > 5000 µM

**Q.** And the “Kr × 10^3” value (BuChE L^286 K)?
**A.** 35 ± 27

**Q.** And the “k'r × 10^3” value (BuChE L^286 K)?
**A.** 4 ± 1

**Q.** What about the “reduction in the pseudo-first order rate constant for reactivation” value (BuChE L^286 K) of the same compound?
**A.** 40 fold

**Q.** And the “k'r × 10^3” value (BuChE F^329 R)?
**A.** 43

**Q.** And the “k'r × 10^3” value (BuChE F^329 Q)?
**A.** 44 ± 15

**Q.** What about the “k'r × 10^3” value (BuChE F^329 C) of the same compound?
**A.** 14 ± 2

**Q.** And the “k'r × 10^3” value (BuChE F^329 D)?
**A.** 8 ± 1

**Q.** And the “k'r × 10^3” value (BuChE S^425 P)?
**A.** 134 ± 8

**Q.** What about the “k'r × 10^3” value (BuChE D^70 G) of the same compound?
**A.** 32 ± 4

**Q.** And the “reactivation rate lower than wild-type BuChE” value (BuChE D^70 G)?
**A.** 5 fold

**Q.** What about the “k'r × 10^3” value (BuChE D^70 G + Y^114 H) of the same compound?
**A.** 12 ± 5

**Q.** And the “k'r × 10^3” value (BuChE D^70 G + S^425 P)?
**A.** 11

**Q.** What about the “k'r × 10^3” value [4] of the same compound?
**A.** 4 ± 1

**Q.** What about the “Kr × 10^3” value [5] of the same compound?
**A.** 7 ± 3

**Q.** What about the “k'r × 10^3” value [5] of the same compound?
**A.** 6 ± 2

**Q.** And the “Kr × 10^3” value [6]?
**A.** 10 ± 5

**Q.** And the “k'r × 10^3” value [6]?
**A.** 8 ± 3

**Q.** What about the Kd [7] of the same compound?
**A.** 200 µM

**Q.** And the Cmax [8]?
**A.** ≤ 40 µM

**Q.** What does the source list for CCN(C)C(=O)Oc1cccc([C@H](C)N(C)C)c1 [SDZ ENA-713]?
**A.** inactivation rates of common BuChE compared with AChE (BuChE normal): higher than or equal to; second order rate constants, ki, for inactivation (BuChE normal): 1.4 × 10^4 ± 0.3 × 10^4; second order rate constants, ki, for inactivation (AChE E6): 4.3 × 10^3; second order rate constants, ki, for inactivation (AChE E5): 3.3 × 10^3; reaction of "atypical" BuChE with carbamates, compared with its normal counterpart ("atypical" serum BuChE): much slower; decrease in BuChE activity ("atypical" serum BuChE; serum, 30 min, 10 µM): about 40%; loss of BuChE activity (normal serum BuChE): 95%; loss of BuChE activity [9]: 80%; reactivation levels [10]: ≤ 8%; inactivation rates of "atypical" BuChE (BuChE "atypical"): considerably lower rates; second order rate constants, ki, for inactivation (BuChE "atypical"): 4.7 × 10^2 ± 4.6 × 10^2; serum BuChE activity (serum BuChE): transient drop in serum BuChE activity; frequency of rapid eye movements during REM sleep (REM sleep): increase the frequency of rapid eye movements during REM sleep

**Q.** For Nc1c2c(nc3ccccc13)CCCC2 [Tacrine, 1,2,3,4-tetrahydro-9 aminoacridine], which “capacity of "atypical" BuChE to interact with tacrine, compared with the normal enzyme” value (serum BuChE "atypical") is on record?
**A.** drastic reduction

**Q.** And the “inhibition curves of mixtures of normal and "atypical" enzyme” value [11]?
**A.** expected intermediary inhibition curves

**Q.** And the “inhibition in the presence of 1 μm tacrine” value [11]?
**A.** intermediate levels of activity

**Q.** What about the “serum BuChE activity” value (serum BuChE) of the same compound?
**A.** transient drop in serum BuChE activity

**Q.** What about the “cases in which aminotransferase reached 20 times the upper limit of normal” value [12] of the same compound?
**A.** 2%

**Q.** And the “patients with severe cholinergic side-effects” value [12]?
**A.** over 10%

**Q.** What about the “serum alanine aminotransferase level in 2% of the cases” value [12] of the same compound?
**A.** 20 times the upper limit of normal

**Q.** What about the “serum alanine aminotransferase level, usually” value [12] of the same compound?
**A.** less than three times the upper limit of normal value

**Q.** What about the “improvement in Alzheimer's disease patients” value (Alzheimer's disease [13]) of the same compound?
**A.** statistically significant, dose-related improvements

**Q.** And the “symptoms of PD patient” value (Parkinson's disease)?
**A.** worsening of the symptoms

**Q.** With CC(=O)Oc1ccccc1C(=O)O [aspirin] as the compound, how does the “Km with "atypical" variant, higher than with usual enzyme” value (“Km with "atypical" variant, higher than” for short) ("atypical" BuChE [14]) read?
**A.** ~4 fold

**Q.** Which “IC50, higher for "atypical" than wild-type BuChE” value ("atypical" BuChE [15]) does the source give for CN(C)C(=O)Oc1cc(OC(=O)N(C)C)cc(C(O)CNC(C)(C)C)c1 (stereo not shown) [bambuterol] here?
**A.** at least 10 fold

**Q.** What about the “Ki, higher for "atypical" than wild-type BuChE” value ("atypical" BuChE [15]) of the same compound?
**A.** at least 10 fold

**Q.** With CCCCOc1cc(C(=O)NCCN(CC)CC)c2ccccc2n1 [dibucaine] as the compound, how does the “hydrolysis by "atypical" BuChE” value ("atypical" BuChE [16]) read?
**A.** inability of the affected enzyme to hydrolyze

**Q.** For CC(=O)Oc1ccc2c3c1O[C@H]1[C@@H](OC(C)=O)C=C[C@H]4[C@@H](C2)N(C)CC[C@@]341 [heroin], which “Km with "atypical" variant, higher than” value ("atypical" BuChE [14]) is on record?
**A.** 4 fold

**Q.** For CC(C)NP(=O)(NC(C)C)OP(=O)(NC(C)C)NC(C)C [iso-OMPA], which “sensitivity of the atypical variant to inhibitors” value ("atypical" BuChE [15]) is on record?
**A.** much less sensitive

**Q.** With CNC(=O)Oc1ccc2c(c1)[C@]1(C)CCN(C)[C@@H]1N2C [physostigmine] as the compound, how does the “inactivation rates of common BuChE compared with AChE” value (BuChE normal) read?
**A.** higher than or equal to

**Q.** What about the “second order rate constants, ki, for inactivation” value (BuChE normal) of the same compound?
**A.** 3.8 × 10^5 ± 1.6 × 10^5

**Q.** What about the “reaction of "atypical" BuChE with carbamates, compared with its normal counterpart” value ("atypical" serum BuChE) of the same compound?
**A.** much slower

**Q.** And the spontaneous reactivation (AChE)?
**A.** up to 90%

**Q.** What about the “inactivation rates of "atypical" BuChE” value (BuChE "atypical") of the same compound?
**A.** considerably lower rates

**Q.** What about the “second order rate constants, ki, for inactivation” value (BuChE "atypical") of the same compound?
**A.** 2.6 × 10^4 ± 0.9 × 10^4

**Q.** What about the “IC50, higher for "atypical" than wild-type BuChE” value ("atypical" BuChE [15]) of the same compound?
**A.** at least 10 fold

**Q.** What about the “Ki, higher for "atypical" than wild-type BuChE” value ("atypical" BuChE [15]) of the same compound?
**A.** at least 10 fold

**Q.** What about the “sensitivity of the atypical variant to inhibitors” value ("atypical" BuChE [15]) of the same compound?
**A.** much less sensitive

**Q.** What about the “effect on cognitive functions” value (Alzheimer's disease [17]) of the same compound?
**A.** small, short-term positive effect on cognitive functions

**Q.** For CCN(CC)CCOC(=O)c1ccc(N)cc1 [procaine], which “Km with "atypical" variant, higher than” value ("atypical" BuChE [14]) is on record?
**A.** 15 fold

**Q.** What does the source list for CN(C)C(=O)Oc1ccc[n+](C)c1 [pyridostigmine]?
**A.** second order rate constants, ki, for inactivation (BuChE normal): 1.9 × 10^3 ± 0.2 × 10^3; second order rate constants, ki, for inactivation (AChE E6): 2.2 × 10^4; second order rate constants, ki, for inactivation (AChE E5): 2.5 × 10^4; reaction of "atypical" BuChE with carbamates, compared with its normal counterpart ("atypical" serum BuChE): much slower; reactivation (AChE): 50%; reactivation [1]: 10%; adverse symptoms under pyridostigmine [18]: insomnia, weight loss and general fatigue, which worsened consistently, and a deep depression

**Q.** Which results are given for C[N+](C)(C)CCOC(=O)CCC(=O)OCC[N+](C)(C)C [succinylcholine]?
**A.** hydrolysis by serum BuChE of H. K. ("atypical" BuChE [19]): totally incapable of hydrolyzing; also recorded: cannot hydrolyze; post-anesthesia apnea [20]: two hour post-anesthesia apnea; hydrolysis by "atypical" BuChE ("atypical" BuChE [16]): unable to hydrolyze; also recorded: inability of the affected enzyme to hydrolyze; hydrolysis by horse serum BuChE (horse serum BuChE): will not hydrolyze
